Test systems include SF-295 CNS; EKVX NSCLC; K-562 leukemia; HT29 colon; TK-10 renal; HCT-15 colon; OVCAR-8 ovarian; IGROV1 ovarian; CAKI-1 renal; NCI-H23 lung.
What all share (test): NCI-60 cell line screen, 48 h

This passage reports TGI and GI50 results from PubChem BioAssay (NCI).

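These data come from cells grown in 96-well plates and exposed to compound for 48 hours at five concentrations. GI50 = concentration required for 50% inhibition of growth. TGI denotes the concentration required for complete inhibition of growth.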 Where only a bound is given, the exact number is not on record here.

`CC(=S)NC1C(Oc2ccc3c(C)cc(=O)oc3c2)OC(CO)C(O)C1O` (centres undefined): the TGI in the experiment on SF-295 CNS, with EKVX NSCLC, in the experiment with K-562 leukemia, in the experiment on HT29 colon, in the experiment on TK-10 renal and with HCT-15 colon was above 100 µM in each case. In addition, the TGI in the experiment on OVCAR-8 ovarian, with IGROV1 ovarian and in the experiment on CAKI-1 renal was above 100 µM each time.
For the compound `C[Si](C)(C)C1=C2C(=O)c3ccccc3C(=O)C2=C([Si](C)(C)C)[C@@H]2CCCC[C@H]12`, the TGI with SF-295 CNS, in the experiment on EKVX NSCLC, in the experiment on K-562 leukemia, with NCI-H23 lung, in the experiment with TK-10 renal and in the experiment on HCT-15 colon was above 100 µM throughout. Further, the TGI in the experiment with IGROV1 ovarian and in the experiment with CAKI-1 renal was above 100 µM each time.
`CC(C)OP(=O)(OC(C)C)c1ncn(-c2ccc([N+](=O)[O-])cc2)n1`: the TGI in the experiment with SF-295 CNS, in the experiment with EKVX NSCLC, with K-562 leukemia, in the experiment with NCI-H23 lung, in the experiment with HT29 colon and in the experiment on TK-10 renal was above 100 µM in each case. The TGI with HCT-15 colon, in the experiment with OVCAR-8 ovarian, with IGROV1 ovarian and with CAKI-1 renal was above 100 µM each time.
For the compound `Cc1cccc2ns[s+]c12`, the TGI in the experiment with SF-295 CNS was above 100 µM; in the experiment with EKVX NSCLC it was above 100 µM; in the experiment with K-562 leukemia, 81.4 µM; with NCI-H23 lung it was above 100 µM; in the experiment on HT29 colon, above 100 µM; with TK-10 renal, above 100 µM. Moreover, the TGI in the experiment with HCT-15 colon is 39.3 µM; with OVCAR-8 ovarian, above 100 µM; in the experiment with IGROV1 ovarian it was above 100 µM; in the experiment on CAKI-1 renal, above 100 µM.
For the compound `COc1ccc2c(c1)CCC1C2CCC2(C)C1CC[C@@]2(O)CNC(=O)/C=C/c1ccc(O)c(O)c1` (some centres undefined), the GI50 with SF-295 CNS was 3.54 µM; in the experiment with EKVX NSCLC, 4.01 µM; in the experiment on NCI-H23 lung, 2.96 µM; in the experiment with HT29 colon, 1.93 µM; in the experiment with TK-10 renal, 2.52 µM; in the experiment with HCT-15 colon, 1.49 µM. Moreover, the GI50 is 4.13 µM in the experiment with OVCAR-8 ovarian, 0.937 µM in the experiment on IGROV1 ovarian and 2.68 µM in the experiment with CAKI-1 renal. Moreover, the TGI in the experiment on SF-295 CNS was above 100 µM; in the experiment on EKVX NSCLC it was above 100 µM; in the experiment with NCI-H23 lung it was 9.14 µM; in the experiment on HT29 colon, 4.78 µM; with TK-10 renal it was 9.81 µM; in the experiment on HCT-15 colon, 4.99 µM. For the same compound, the TGI is above 100 µM in the experiment with OVCAR-8 ovarian, 3.37 µM in the experiment on IGROV1 ovarian and above 100 µM in the experiment with CAKI-1 renal.
As to `O=C(CCc1nnc2s/c(=C\c3ccc(Cl)cc3Cl)c(=O)n12)Nc1cc(Cl)c(Cl)cc1Cl`, the GI50 in the experiment on SF-295 CNS, in the experiment with EKVX NSCLC, in the experiment on K-562 leukemia, in the experiment with NCI-H23 lung, with HT29 colon and with HCT-15 colon was above 100 µM throughout. Also, the GI50 with OVCAR-8 ovarian, with IGROV1 ovarian and with CAKI-1 renal was above 100 µM throughout. Besides, the TGI with SF-295 CNS, with EKVX NSCLC, with K-562 leukemia, in the experiment with NCI-H23 lung, in the experiment with HT29 colon and with TK-10 renal was above 100 µM throughout. The TGI in the experiment on HCT-15 colon, in the experiment with OVCAR-8 ovarian, with IGROV1 ovarian and in the experiment on CAKI-1 renal was above 100 µM throughout.
For `CN1C(=N\S(=O)(=O)c2ccc(Cl)cc2)/C(=N/N=P(c2ccccc2)(c2ccccc2)c2ccccc2)c2ccccc21`, the TGI in the experiment on SF-295 CNS, in the experiment with EKVX NSCLC, in the experiment on K-562 leukemia, with NCI-H23 lung, in the experiment on HT29 colon and with TK-10 renal was above 100 µM each time. Further, the TGI in the experiment on HCT-15 colon, with OVCAR-8 ovarian, with IGROV1 ovarian and in the experiment on CAKI-1 renal was above 100 µM throughout.
